For 16 compounds, TGI and GI50 results are on record in PubChem BioAssay (NCI).

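1) Cells in 96-well plates. 2) Compound, 48 h, 5 concentrations. 3) Linear interpolation between surrounding doses. 4) Unreached endpoint = highest concentration. GI50 marks 50% less growth. At the TGI there is no net growth.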

Some test systems named below: COLO 205 colon; PC-3 prostate; HOP-62 NSCLC; KM12 colon; CCRF-CEM leukemia; A549 NSCLC; SW-620 colon; MDA-MB-435; MDA-MB-231 breast.
Assay in all cases: NCI anticancer screen, dose series, 48 h

Consider `CC[C@]1(O)CC(OC2CC(N(C)C)C(O)C(C)O2)c2c(cc3c(c2O)C(=O)c2c(O)cccc2C3=O)[C@@H]1C(=O)OC` (stereo partly specified), for which the TGI with COLO 205 colon is 3.79 µM; in the experiment on PC-3 prostate it was 1.8 µM; with HOP-62 NSCLC it was 2.14 µM; with KM12 colon, 3.2 µM; in the experiment on CCRF-CEM leukemia, 3.39 µM; in the experiment on A549 NSCLC, 6.59 µM. Besides, the TGI amounted to 3.95 µM with SW-620 colon, 1.44 µM in the experiment on MDA-MB-435 and 4.2 µM in the experiment with MDA-MB-231 breast.

On to `Nc1c(C(=O)c2cccc(CCCN3CCOCC3)c2)cnn1-c1ccc(F)cc1`, for which the GI50 with COLO 205 colon, in the experiment with PC-3 prostate, with HOP-62 NSCLC, in the experiment on KM12 colon, in the experiment with CCRF-CEM leukemia and in the experiment with A549 NSCLC was > 25 µM throughout. Besides, the GI50 in the experiment on SW-620 colon, with MDA-MB-435 and with MDA-MB-231 breast was > 25 µM throughout. The TGI with COLO 205 colon, with PC-3 prostate, in the experiment on HOP-62 NSCLC, in the experiment on KM12 colon, in the experiment with CCRF-CEM leukemia and in the experiment on A549 NSCLC was > 25 µM in each case. Further, the TGI in the experiment with SW-620 colon, with MDA-MB-435 and with MDA-MB-231 breast was > 25 µM in each case.

Take `NC(=O)NNCc1ccccc1`: the TGI in the experiment on COLO 205 colon, with PC-3 prostate, with HOP-62 NSCLC, in the experiment on KM12 colon, with CCRF-CEM leukemia and in the experiment on A549 NSCLC was > 100 µM in each case. Besides, the TGI in the experiment on SW-620 colon, in the experiment with MDA-MB-435 and in the experiment with MDA-MB-231 breast was > 100 µM throughout.

On to `CCCCCCCCCCCCNC(C)=O`, for which the TGI is 31.6 µM with COLO 205 colon; 28.4 µM with PC-3 prostate; 28.9 µM in the experiment on HOP-62 NSCLC; 35.7 µM in the experiment with KM12 colon; 32.7 µM in the experiment with CCRF-CEM leukemia; > 100 µM with A549 NSCLC. Also, the TGI with SW-620 colon is 30.9 µM; in the experiment with MDA-MB-435, 35.4 µM; in the experiment on MDA-MB-231 breast, 28.6 µM.

In the case of `COc1cc(NS(C)(=O)=O)ccc1Nc1c2ccc([N+](=O)[O-])cc2nc2c(C)cccc12`, the GI50 in the experiment on COLO 205 colon is 2.05 µM; in the experiment on PC-3 prostate, 1.1 µM; in the experiment on HOP-62 NSCLC, 0.107 µM; in the experiment on KM12 colon it was 0.814 µM; in the experiment with CCRF-CEM leukemia, 0.158 µM; with A549 NSCLC, 0.0345 µM. The values for the GI50 in the experiment on SW-620 colon, in the experiment with MDA-MB-435 and in the experiment on MDA-MB-231 breast were 0.349 µM, 1.67 µM and 3.82 µM, respectively. For the same compound, the TGI was found to be 13.5 µM with COLO 205 colon; 9.1 µM in the experiment with PC-3 prostate; 6.37 µM with HOP-62 NSCLC; 8.15 µM in the experiment on KM12 colon; 3.4 µM in the experiment with CCRF-CEM leukemia; 2.34 µM in the experiment on A549 NSCLC. The TGI in the experiment with SW-620 colon is 12.2 µM; with MDA-MB-435 it was 15 µM; with MDA-MB-231 breast, 16.4 µM.

As to `C=C1C(=O)O[C@H]2[C@H]1CC/C(CNC(=O)Cc1c[nH]c3ccccc13)=C\CC[C@@]1(C)O[C@@H]21`, the GI50 with COLO 205 colon was 0.313 µM; with PC-3 prostate it was 6.36 µM; with HOP-62 NSCLC it was 5.06 µM; in the experiment on KM12 colon, 8.44 µM; with CCRF-CEM leukemia it was 0.303 µM; in the experiment on A549 NSCLC, 14.9 µM. Further, the values for the GI50 in the experiment on SW-620 colon, in the experiment with MDA-MB-435 and in the experiment on MDA-MB-231 breast were 0.352 µM, 0.862 µM and 3.87 µM, respectively. Moreover, the TGI with COLO 205 colon was determined as 1.14 µM; in the experiment on PC-3 prostate, 21.1 µM; in the experiment with HOP-62 NSCLC, 19.7 µM; in the experiment with KM12 colon, 21.6 µM; with CCRF-CEM leukemia, 1.02 µM; in the experiment with A549 NSCLC, 33.3 µM. The values for the TGI with SW-620 colon, with MDA-MB-435 and in the experiment with MDA-MB-231 breast were 1.37 µM, 13.4 µM and 17.5 µM, respectively.

Consider `O=[N+]([O-])c1ccc(S(=O)(=O)Cc2ccccc2)c([N+](=O)[O-])c1`, for which the TGI with COLO 205 colon was found to be 3.26 µM; in the experiment with PC-3 prostate it was 3.45 µM; in the experiment on HOP-62 NSCLC it was 9.13 µM; with KM12 colon, 23.7 µM; with CCRF-CEM leukemia it was 0.498 µM; with A549 NSCLC, 33.3 µM. For the same compound, the TGI was 20.1 µM in the experiment on SW-620 colon, 3.34 µM in the experiment on MDA-MB-435 and 5.99 µM in the experiment on MDA-MB-231 breast.

As for `OC(c1cccc(-n2ccc(C(F)(F)F)n2)c1)c1cnccc1NC1CCCCCC1` (stereo unspecified), the GI50 with PC-3 prostate was 1.59 µM; in the experiment with HOP-62 NSCLC, 1.95 µM; with KM12 colon, 1.87 µM; in the experiment with CCRF-CEM leukemia it was 2.35 µM; with A549 NSCLC, 1.81 µM; in the experiment on SW-620 colon, 1.67 µM. Besides, the GI50 with MDA-MB-435 was 1.73 µM; with MDA-MB-231 breast, 1.69 µM. Besides, the TGI is 3.09 µM in the experiment on PC-3 prostate; 3.84 µM with HOP-62 NSCLC; 3.54 µM in the experiment with KM12 colon; 6.04 µM in the experiment on CCRF-CEM leukemia; 3.56 µM with A549 NSCLC; 3.31 µM with SW-620 colon. The figures for the TGI with MDA-MB-435 and in the experiment with MDA-MB-231 breast were 3.14 µM and 3.16 µM, respectively.

With `O=C(O)CCNc1ccccc1C(=O)O`, the TGI in the experiment on COLO 205 colon, in the experiment on PC-3 prostate, in the experiment with HOP-62 NSCLC, in the experiment on KM12 colon, in the experiment on CCRF-CEM leukemia and with A549 NSCLC was > 100 µM in each case. The TGI in the experiment on SW-620 colon, with MDA-MB-435 and with MDA-MB-231 breast was > 100 µM throughout.

Regarding `O=C(O)C/C(=C\c1ccco1)C(=O)O`, the TGI in the experiment with COLO 205 colon, in the experiment on PC-3 prostate, with HOP-62 NSCLC, in the experiment with KM12 colon, with A549 NSCLC and in the experiment on SW-620 colon was > 100 µM throughout. For the same compound, the TGI in the experiment with MDA-MB-435 and with MDA-MB-231 breast was > 100 µM each time.

Take `Nc1ccc2c(c1)C(=O)C(=O)c1c-2nc2ccccn12`: the GI50 was 10.8 µM in the experiment on COLO 205 colon; 1.78 µM in the experiment with PC-3 prostate; 2.13 µM in the experiment on KM12 colon; 1.77 µM in the experiment on CCRF-CEM leukemia; 1.62 µM in the experiment on A549 NSCLC; 1.8 µM with SW-620 colon. For the same compound, the GI50 in the experiment with MDA-MB-435 is 0.186 µM; in the experiment on MDA-MB-231 breast, 1.75 µM. Further, the TGI with COLO 205 colon stood at 26.6 µM; in the experiment on PC-3 prostate, 10.5 µM; with KM12 colon, 6.8 µM; in the experiment with CCRF-CEM leukemia it was 5.27 µM; in the experiment on A549 NSCLC it was 3.54 µM; in the experiment on SW-620 colon, 3.83 µM. Further, the TGI turned out to be 0.352 µM with MDA-MB-435 and 4.96 µM in the experiment on MDA-MB-231 breast.

Regarding `F`, the GI50 in the experiment with COLO 205 colon was 2830 µM; in the experiment with PC-3 prostate, 3920 µM; in the experiment on HOP-62 NSCLC, 2560 µM; in the experiment with KM12 colon, 2610 µM; with CCRF-CEM leukemia, 4540 µM; in the experiment on A549 NSCLC, 2730 µM. Further, the figures for the GI50 with MDA-MB-435 and in the experiment with MDA-MB-231 breast were 2080 µM and 2660 µM, respectively. For the same compound, the TGI with COLO 205 colon, with PC-3 prostate, in the experiment on HOP-62 NSCLC, with KM12 colon, in the experiment with CCRF-CEM leukemia and with A549 NSCLC was > 6870 µM throughout. Further, the TGI in the experiment on MDA-MB-435 is 5500 µM; with MDA-MB-231 breast, > 6870 µM.

Take `COc1cc2c(cc1O)CC[C@@H]1[C@@H]2CC[C@]2(C)[C@@H](NCCN(C)C)CC[C@@H]12`: the GI50 with COLO 205 colon was 0.107 µM; in the experiment on PC-3 prostate, 0.188 µM; with HOP-62 NSCLC, 0.194 µM; with CCRF-CEM leukemia it was 0.156 µM; in the experiment with A549 NSCLC it was 0.3 µM; in the experiment on SW-620 colon, 0.14 µM. The results for the GI50 in the experiment on MDA-MB-435 and in the experiment on MDA-MB-231 breast were 0.0662 µM and 0.0979 µM, respectively. Besides, the TGI worked out at 0.4 µM in the experiment on COLO 205 colon; 0.599 µM in the experiment on PC-3 prostate; 0.717 µM with HOP-62 NSCLC; 0.612 µM in the experiment with CCRF-CEM leukemia; 0.827 µM with A549 NSCLC; 0.556 µM with SW-620 colon. The TGI was found to be 0.133 µM in the experiment with MDA-MB-435 and 0.391 µM with MDA-MB-231 breast.

Consider `O=C1c2ccccc2-c2c1c1ccccc1c(=O)n2CCCCNCCCn1c2c(c3ccccc3c1=O)C(=O)c1ccccc1-2`, for which the GI50 with COLO 205 colon is 1.51 µM; in the experiment with PC-3 prostate, 0.245 µM; in the experiment on HOP-62 NSCLC it was 0.13 µM; with KM12 colon, 0.31 µM; in the experiment on A549 NSCLC, 0.508 µM; with SW-620 colon, 0.022 µM. For the same compound, the GI50 was 0.851 µM with MDA-MB-435 and 0.319 µM in the experiment with MDA-MB-231 breast. The TGI was 12.7 µM with COLO 205 colon; 1.05 µM in the experiment with PC-3 prostate; 1.42 µM in the experiment on HOP-62 NSCLC; 2.45 µM in the experiment with KM12 colon; 2.9 µM with A549 NSCLC; 0.528 µM in the experiment on SW-620 colon. For the same compound, the TGI worked out at 4.32 µM with MDA-MB-435 and 1.34 µM with MDA-MB-231 breast.

Consider `Cc1c(N2CCCC2)cc2c(c1NC(=O)c1ccccc1Cl)C(C)(C)CC2(C)C`, for which the TGI was found to be 35.2 µM in the experiment on COLO 205 colon; 29.9 µM in the experiment on PC-3 prostate; 28.4 µM with HOP-62 NSCLC; 30.3 µM in the experiment on KM12 colon; 27.6 µM in the experiment on A549 NSCLC; 33.1 µM with SW-620 colon. The TGI in the experiment with MDA-MB-435 is 27.9 µM; in the experiment on MDA-MB-231 breast, 29.3 µM.

Take `FC(F)(F)c1nc(N2CCCC2)ncc1-c1nnnn1-c1ccc(Cl)cc1`: the GI50 with COLO 205 colon was 10.7 µM; in the experiment on PC-3 prostate, 16 µM; in the experiment on KM12 colon, 15 µM; with CCRF-CEM leukemia, 6.71 µM; with A549 NSCLC it was 13.4 µM; in the experiment with SW-620 colon it was 30.4 µM. Moreover, the GI50 in the experiment with MDA-MB-435 is 15.2 µM; with MDA-MB-231 breast, 24.6 µM. The TGI with COLO 205 colon was 27.5 µM; with PC-3 prostate, 82.2 µM; with KM12 colon, 48 µM; in the experiment with CCRF-CEM leukemia, 45.4 µM; with A549 NSCLC it was > 100 µM; in the experiment on SW-620 colon, > 100 µM. Also, the TGI was 40.8 µM with MDA-MB-435 and > 100 µM in the experiment on MDA-MB-231 breast.
